Where two headings read alike, the source gives them in different places.
Test system: PC-3 cells
Assay: BrdU incorporation assay
Assay type: cell-based
Conditions: read-out: IC50, inhibition of BrdU incorporation (proliferation)
Experimental: PC-3 cells were treated with 100 nM to 100 μM C3 for 24 hours and BrdU incorporation was quantified using HRP generated luminescence from an antibody pair recognizing BrdU (n=6, mean±SEM). C3 BrdU signal was normalized to a row where PC-3 cells were exposed to 0.5% DMSO (assay conditions). Curve obtained using GraphPAd Prism as described in the methods.
Cell Viability Screen. PC-3, Endo, TC2-Ras, SH-SY5Y, and LNCaP cells were seeded in 96-well plates at 1,500 cells per well using the Scepter cell counter (EMD Millipore). Cells were continuously incubated with compound using a 6-point dose curve: 100, 57.5, 32.4, 18.6, 10.5, and 6.0 μM in their respective complete media. Cell viability was measured by using the cell counting kit-8 (CCK-8, Dojindo). […] CCK-8 absorbance was measured at 450 nm using a GloMax Multimode Reader (Promega). Readings were performed the day after seeding to normalize for variations in cell seeding and after 96 hours of compound treatment. After each reading, CCK-8 media was removed and replaced with media containing compound as described previously. […] As described previously, an initial baseline CCK-8 reading was performed at 24 hours post seeding to correct for variations in seeding density. First, 450 nm values for each well were subtracted from media only readings to correct for baseline absorbance. […]

## O=C(c1cc(F)cc2c1OCOC2)N1CCN(C2c3ccccc3-c3ccccc32)CC1 [Compound C3, [4-(9h-fluoren-9-yl)piperazino](6-fluoro-4h-1,3-benzodioxin-8-yl)methanone]
24 hours
  IC50: 10 µM
Homo sapiens, PC-3, 24 h
  IC50: 10.1 µM

From patent US11022604B2, “Dock derived compound against laminin receptor (37 LR) and uses thereof” (Purdue Research Foundation, priority 2017, dated 2021)
